We go through two compounds from patent US12612424B2, “HPK1 inhibitors and uses thereof” (Regor Pharmaceuticals, Inc., priority 2019, dated 2026).

The target in one assay is HPK1 (Homo sapiens, UniProt Q92918). Put plainly: HPK1 biochemical assay (ADP-GLO Kinase Assay). The following applies: B*: testing performed in a first testing facility; read-out: HPK1 IC50 (nM) Relative, B*. The procedure, abridged:
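HPK1 (0.6 ng/μL final) activity was followed with MBP substrate and 10 μM ATP in Tris pH 7.5/MgCl2/BSA/DTT buffer, measured by ADP-Glo luminescence. Compounds were tested as 3-fold dilutions from 10 μM. IC50 came from a three-parameter logistic fit, with inhibition normalised to high/low controls.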
For orientation: ADP-Glo first removes unused ATP, then detects ADP through luciferase.

The test system of assay [1] is Human Pan T Cell (IL-2 release). Put plainly: IL2 released by human pan T cell upon anti-CD3/anti-CD28 stimulation (ELISA). The following applies: human pan T cells; for maximal fold induction: 48 h, response of IL-2 over DMSO control, anti-CD3/anti-CD28, 48 hours, ELISA, read-out: IL-2 Max Fold Response. Type of assay: cell-based. The text has this:
For example, Example 5 describes such a functional assay for determining the effect of an HPK1 inhibitor on IL-2 & IFN-γ release upon stimulation of Pan T cells. The secreted IL-2 & IFN-γ can be measured/quantified by standard ELISA assay. Briefly, pan T cells can be isolated from peripheral blood (PB) mononuclear cells (MNCs), or PBMC, using commercially available kits, such as MACS (Miltenyl Biotec) Pan T isolation kit (Cat. No. 130-096-535). Primary human pan-T cells include CD4 and CD8 T cells as well as some gamma/delta T cell subsets. The pan-T cells can be isolated using the negative immunomagnetic separation technique without the use of columns.
Isolated pan-T cells can be dispensed into 96-well plates at 100,000 cells/well, and stimulated with immobilized anti-CD3 antibody and soluable anti-CD28 antibody, or PMA/Ionomycin as the positive control (or culture media as the negative control). Different concentrations of test compounds can be added to the cells to assess the compound effect on cytokine secretion following TCR-stimulation/CD28 co-stimulation. Stimulated cells are incubated for 2 more days, before the supernatant (containing secreted cytokines by pan-T cells) is collected from each well for ELISA assay and quantitation of IL-2 and IFN-γ.
Biology Example 8 Compound Efficacy Study on IL2 & IFN-γ Released by Human Pan T Cell
This example is an assay method that can be used to determine compound effects on IL2 & IFN-γ release using pan T cells and ELISA assay format.
3. Procedures Procedures for Pan T isolation and Reagent preparation (Day 0): 1. Cell Growth Medium: • RPMI1640: ATCC, Cat #30-2001 • 10% FBS: Gibco, Cat #10099141 • 1% Pen-Strep: Gibco, Cat #15140122 • 1% Non-essential amino: Gibco, Cat #11140050 • Beta-Mercaptoethanol: Gibco, Cat #21985023 2. Pan T Isolation Buffer Preparation:
Prepare a solution containing phosphate-buffered saline (PBS), pH 7.2, 0.5% bovine serum albumin (BSA), and 2 mM EDTA by diluting MACS® BSA Stock Solution (#130-091-376) 20 times with autoMACS® Rinsing Solution. Keep buffer at 4° C. Degas buffer before use, as air bubbles could block the column.
3. Thawing of Frozen PBMC • 1) Pre-heat medium at 37° C. water bath. • 2) Rapidly thaw cells in 37° C. water bath. • 3) Add the pre-warmed medium into 15 mL tube. Transfer cells to the tube. • 4) 300×g centrifuge for 8 min. (centrifuge increase 0, decrease 0). • 5) Wash the PBMC using Rinsing buffer. • 6) Centrifuge PBMC at 300×g for 8 min, wash it twice (centrifuge increase 9, decrease 1). • 7) Resuspend the cells with Pan T cells isolation buffer and count cells number. 4. Pan T Cells Isolation: Cell Staining with Microbead Cocktail • 1) Prepare cells and determine cell number. Filter cells by 70 μm cell strainer. • 2) Resuspend cell pellet in 40 μL of buffer per 10^7 total cells. • 3) Add 10 μL of Pan T Cell Biotin-Antibody Cocktail per 10^7 total cells. • 4) Mix well and incubate for 10 minutes in the refrigerator (ice). • 5) Add 30 μL of buffer per 10^7 total cells. • 6) Add 20 μL of Pan T Cell MicroBead Cocktail per 10^7 total cells. • 7) Mix well and incubate for 15 minutes in the refrigerator (ice). • 8) Proceed to subsequent magnetic cell separation. • Note: a. Work fast, keep cells cold, and use pre-cooled solutions (2-8° C.). b. Volumes for magnetic labeling given are for up to 10′ total cells. When working with fewer cells, use the same volumes as indicated. c. When working with higher cell numbers, scale up all reagent volumes and total volumes accordingly. d. For optimal performance it is important to obtain a single-cell suspension before magnetic labeling. Subsequent Manual Cell Separation: • 1) Place LS Column in the magnetic field of a suitable MACS Separator. For details refer to the respective MACS Column data sheet. • 2) Prepare column by rinsing with 3 mL of buffer. • 3) Apply cell suspension onto the column. Collect flow-through, which represents the enriched T cells. • 4) Wash column with 5 mL of buffer. […]

Chain of HPK1 (Q92918 whole entry): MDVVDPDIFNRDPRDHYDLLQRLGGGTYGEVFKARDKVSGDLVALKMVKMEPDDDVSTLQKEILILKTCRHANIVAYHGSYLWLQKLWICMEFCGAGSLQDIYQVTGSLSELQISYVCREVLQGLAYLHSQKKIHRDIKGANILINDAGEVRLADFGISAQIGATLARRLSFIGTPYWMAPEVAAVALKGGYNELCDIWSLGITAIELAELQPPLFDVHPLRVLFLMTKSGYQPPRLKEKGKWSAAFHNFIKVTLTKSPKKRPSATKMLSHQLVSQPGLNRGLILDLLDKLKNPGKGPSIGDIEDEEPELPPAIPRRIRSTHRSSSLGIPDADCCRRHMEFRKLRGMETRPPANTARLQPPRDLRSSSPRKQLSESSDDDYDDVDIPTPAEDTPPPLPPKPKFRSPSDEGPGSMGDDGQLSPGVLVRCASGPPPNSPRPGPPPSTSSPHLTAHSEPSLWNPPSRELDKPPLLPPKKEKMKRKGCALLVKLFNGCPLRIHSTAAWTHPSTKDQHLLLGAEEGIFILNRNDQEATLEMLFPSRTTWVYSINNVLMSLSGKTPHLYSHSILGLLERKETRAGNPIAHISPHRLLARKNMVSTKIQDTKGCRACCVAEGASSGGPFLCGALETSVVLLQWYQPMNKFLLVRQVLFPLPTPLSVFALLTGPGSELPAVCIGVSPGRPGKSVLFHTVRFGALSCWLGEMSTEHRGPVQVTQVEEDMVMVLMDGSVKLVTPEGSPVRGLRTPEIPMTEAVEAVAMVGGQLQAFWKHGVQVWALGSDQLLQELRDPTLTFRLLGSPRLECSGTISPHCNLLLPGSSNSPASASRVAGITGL

On to `COc1cc2c(cc1Nc1ncc(Cl)c(N3CCc4ccccc43)n1)CN(CCO)CC2` [Example 27], for which, at HPK1, the IC50 is at most 100 nM. For the same compound, the maximal fold induction in assay [1] (Homo sapiens, T-cell) is over 2. Besides, in assay [1] (Homo sapiens, T-cell, IL-2 response, calculated with GraphPad Prism), the EC50 is over 1000 nM. For the same compound, the “EC2x (nM)” value in assay [1] (concentration of compound that gives 200% IL-2 response (2 folds) over DMSO control) is “+ (“+”, for greater than 1 μM)”.
As to `COc1cc2c(cc1Nc1ncc(Cl)c(-n3cc(F)c4ccccc43)n1)CN(C)CC2` [Example 11, N-(5-Chloro-4-(3-fluoro-1H-indol-1-yl)pyrimidin-2-yl)-6-methoxy-2-methyl-1,2,3,4-tetrahydroisoquinolin-7-amine], the IC50 on HPK1 is at most 100 nM. For the same compound, the maximal fold induction in assay [1] (Homo sapiens, T-cell) is under 2.

As usually defined, the IC50 is the concentration that gives 50% inhibition. A word on the EC50: it is the midpoint of the concentration-response curve.
